The results in this text go back to ChEMBL document CHEMBL3507680, “University of Dundee, Gates Library screen for HepG2 cell viability”.

The data set can be described thus: Human HepG2 cell viability assay in 384 well format. Type of data set: toxicity, cell-based. Details: dose 125 nL, time 70.5 hour; concentration not given beside the values. The conditions noted are these: HepG2 cells, read-out: Inhibition.

Take `O=C(c1ccco1)N1CCC2(CCC(=O)N2Cc2ccccc2)CC1`: the cytotoxicity at 70.5 h was -11.1%.
Take `Cc1cccc(CN2C(=O)CCC23CCN(C(=O)c2ccco2)CC3)c1`: the cytotoxicity at 70.5 h was -10.9%.
Turning to `CN(C)C(=O)N1CCN(c2ccc3ccc(C(=O)NC4CC4)cn23)CC1`, the cytotoxicity at 70.5 h stood at 11.8%.
For the compound `CN(C)C(=O)c1ccc2ccc(N3CCN(CC4CC4)CC3)n2c1`, the cytotoxicity at 70.5 h came to 19.2%.
Consider `CN1[C@@H](C(=O)NCC2CC2)C[C@@H]2CN(Cc3ccoc3)C[C@@H]21`, for which the cytotoxicity at 70.5 h was determined as 13.7%.
Turning to `CCc1ccc(C(=O)N2CCCC3(CCCC(=O)N3C)C2)cc1` (stereo not given), the cytotoxicity at 70.5 h is -10.6%.
`O=C(NCC1CC1)C1CCC2(CCN(C(=O)c3ccoc3)CC2)O1` (stereo not given): the cytotoxicity at 70.5 h is -20%.
Take `Cc1nc(CN2C(=O)C[C@@H]3[C@@H]2CCN3Cc2cnn(C)c2)cs1`: the cytotoxicity at 70.5 h is -15.4%.
Regarding `CN(C)CCN1C(=O)CCC12CCCN(C(=O)CC1CC1)CC2` (stereo not given), the cytotoxicity at 70.5 h amounted to 20.2%.
The figure for `O=C(C1CCOCC1)N1CC[C@@H](O)[C@@H]1Cc1ccncc1` is -0.548%; for `CCOCC(=O)N1CCC2(CC1)CN(Cc1cccnc1)C(=O)CO2` it is -9.22%.
Consider `c1cnc(N2CCCC3(CCN(Cc4cccs4)C3)C2)nc1` (stereo not given), for which the cytotoxicity at 70.5 h is -6.41%.
As for `COCCN1C(=O)CCC12CCCN(C(=O)CC1CC1)CC2` (stereo not given), the cytotoxicity at 70.5 h was -6.84%.
Consider `O=C(c1ccnnc1)N1CC[C@@H](O)[C@@H]1Cc1ccccc1`, for which the cytotoxicity at 70.5 h was -9.3%.
The figure for `CN(C)C(=O)N1CC[C@@H](O)[C@@H]1Cc1ccccc1` is -7.54%.
The figure for `O=C1CC2(CCCCN2C(=O)c2cccs2)CN1CC1CC1` (stereo not given) is 3.54%; for `CN(C)CCNC(=O)c1ccc2ccc(N(C)CC3CC3)n2c1` it is -0.944%.
The figure for `Cc1nc(N2CCOCC2)nc2c1CCN(C(=O)N1CCCC1)CC2` is -2.06%; for `Cc1cccc(CN2C(=O)CCC23CCN(Cc2ccoc2)CC3)n1` it is -0.993%.
As for `CN(C)C(=O)CNC(=O)c1ccc2ccc(N(C)CC3CC3)n2c1`, the cytotoxicity at 70.5 h is -12.4%.
Take `CCS(=O)(=O)N1CCc2nc(N3CCCC3)nc(N(C)C)c2CC1`: the cytotoxicity at 70.5 h amounted to 24.9%.
To `CCS(=O)(=O)N1CCOC2(COCCN(C(C)=O)C2)C1` (stereo not given) belongs 28.6%; to `Cc1nnc(N2C[C@@H]3CCCO[C@@H]3[C@H](N(C)C)C2)s1`, 26.3%; to `CN1CCN(C(=O)Cc2ccccn2)Cc2cccnc21`, -2.09%.
Regarding `COCC1CN(C(=O)c2ccnnc2)Cc2ncnn2C1` (stereo not given), the cytotoxicity at 70.5 h is -3.33%.
The figure for `CCN1C(=O)C2(CCOCC2)c2cc(NC(=O)c3cnccn3)ccc21` is 1.85%; for `CCN1C(=O)C2(CCOCC2)c2cc(NC(=O)c3cc(C)n[nH]3)ccc21` it is -3.02%; for `Cc1cc(C(=O)NCC2Cn3nnc(C)c3CO2)no1` (stereo not given) it is -7.19%.
With `Cn1cc(CN2CCc3c(COCc4ccncc4)cncc3C2)cn1`, the cytotoxicity at 70.5 h was -6.18%.
As to `Cc1ccc(CN2CC[C@H]3C[C@H](c4nc(C5CC5)cs4)O[C@@H]3C2)o1`, the cytotoxicity at 70.5 h is -6.11%.
Regarding `c1cc(CN2CC[C@H]3C[C@H](c4nc(C5CC5)cs4)O[C@@H]3C2)ccn1`, the cytotoxicity at 70.5 h was -7.31%.
`O=C(c1ccoc1)N1CCC2(C1)CN(c1ncc(F)cn1)C2`: the cytotoxicity at 70.5 h was -0.91%.
The figure for `O=C(c1ccoc1)N1CCC2(C1)CN(c1ncccn1)C2` is 0.524%.
For `CN(C)Cc1nnc2n1CCN(Cc1cccnc1)C2`, the cytotoxicity at 70.5 h was -2.36%.
The figure for `CCOCC(=O)NCC1Cn2nnc(-c3cccc(F)c3)c2CO1` (stereo not given) is -4.09%; for `COc1ccc(CN2C[C@@H]3CN(C(=O)c4ccsc4)C[C@@H]3C2=O)cc1` it is -4.99%.
On to `Cc1cccc(CN2C[C@@H]3CN(C(=O)c4ccco4)C[C@@H]3C2=O)c1`, for which the cytotoxicity at 70.5 h was -1.41%.
On to `O=C(O)c1ccc2c(c1)C1(CCCCC1)CN2C(=O)c1ccnnc1`, for which the cytotoxicity at 70.5 h is -4.43%.
With `CC(=O)N1CCOC2(CCCN(Cc3ccc(Cl)c(C(F)(F)F)c3)C2)C1` (stereo not given), the cytotoxicity at 70.5 h is -1.77%.
For `Cn1cc(CN2CC3(CCN(Cc4ccsc4)C3)C2)cn1`, the cytotoxicity at 70.5 h came to 24.7%.
The figure for `O=C(O)CN1CCC2(CCc3ccccc32)CC1` is 13.9%; for `O=C(O)c1ccc2c(c1)C1(CCCCC1)CN2C(=O)c1cccc(F)c1` it is 8.94%.
The figure for `CC(=O)N1[C@H](Cn2cncn2)C[C@@H]2CN(Cc3nccs3)CC[C@@H]21` is 14.9%; for `O=C1CC2(CCCNC2)C(=O)N1Cc1ccc(Cl)cc1` (stereo not given) it is -15.9%.
Regarding `O=C1CC2(CCCNC2)C(=O)N1Cc1cccc(Cl)c1` (stereo not given), the cytotoxicity at 70.5 h was 29.4%.
The figure for `CC(C)CN1CCC2(C=C(C(=O)NC3CC3)c3ccccc32)CC1` is -11.9%.
The figure for `COCCN1CCC2(CCN(Cc3ccc(OC)cc3)CC2)C1=O` is -11.1%; for `CCO[C@@H]1CO[C@@]2(CCN(Cc3ccc4c(c3)OCO4)C2)C1` it is -17.3%.
Turning to `CC(C)CN1CCC2(CCN(Cc3ccc(F)cc3)CC2)C1=O`, the cytotoxicity at 70.5 h was -5.32%.
To `C[C@H]1CN(C(=O)c2ccoc2)C[C@@]12CCN(CCN(C)C)C2=O` belongs 14.7%.
Turning to `CC(C)NC(=O)CC1COC2(CCN(Cc3ccsc3)CC2)C1` (stereo not given), the cytotoxicity at 70.5 h is -9.99%.
`O=C(NCC1CC1)C1CCC2(CCN(C(=O)c3cccnc3)CC2)O1` (stereo not given): the cytotoxicity at 70.5 h is -9.48%.
For `CN(C)C(=O)CN1C(=O)CCC12CCN(Cc1ccsc1)CC2`, the cytotoxicity at 70.5 h was -15.7%.
In the case of `CCN1C(=O)CCC12CCCN(Cc1ccc(F)cc1)CC2` (stereo not given), the cytotoxicity at 70.5 h is -9.34%.
Turning to `Cc1ccc(CN2CCC3(CCC(=O)N3CC(=O)N(C)C)CC2)s1`, the cytotoxicity at 70.5 h is -13.1%.
As to `O=C(C1CCCC1)N1C[C@@H]2CCN(c3cnccn3)C[C@@H]2C1`, the cytotoxicity at 70.5 h is -1.88%.
Take `CC(=O)N1CCN(Cc2ccco2)CC2(CC(=O)N(C)C2)C1` (stereo not given): the cytotoxicity at 70.5 h is 20.7%.
For `O=C(c1ccco1)N1CC2(CCNCC2)c2cc(Cl)ccc21`, the cytotoxicity at 70.5 h was 27.2%.
In the case of `O=C1CC2(CCCCN2C(=O)c2ccncc2)CN1CC1CC1` (stereo not given), the cytotoxicity at 70.5 h is 1.69%.
`COCC1CN(Cc2sccc2C)Cc2nnn(CC3CC3)c21` (stereo not given): the cytotoxicity at 70.5 h is -4.06%.
The figure for `CN(C)C(=O)CO[C@@H]1CN(Cc2ccccc2F)[C@@H]2CCCO[C@@H]21` is -6.14%.
As for `CC(=O)N1CCCC2(CN(Cc3ccc(F)cc3)CCO2)C1` (stereo not given), the cytotoxicity at 70.5 h amounted to 2.34%.
With `Cc1ccc2c(c1)CCC21CCN(C(=O)CN(C)C)CC1`, the cytotoxicity at 70.5 h is -1.12%.
As for `Cc1ccc(CNCC2Cn3nnc(-c4cccc(F)c4)c3CO2)o1` (stereo not given), the cytotoxicity at 70.5 h is -2%.
On to `c1csc(CN2CCO[C@H]3[C@H](OCC4CCCC4)CC[C@@H]32)n1`, for which the cytotoxicity at 70.5 h is -1.77%.
To `COCCN1CCC2(CCN(Cc3cccs3)CC2)C1=O` belongs 16.2%.
Take `O=C([C@@H]1COC[C@H]2CN(C3CCCC3)C[C@H]21)N1CCCCO1`: the cytotoxicity at 70.5 h amounted to 11.7%.
On to `COc1ccc(CN2CCC3(CC2)CCN(CCN(C)C)C3=O)cc1`, for which the cytotoxicity at 70.5 h was -18%.
For the compound `O=C1CCC2(CCN(Cc3ccc(F)cc3)CC2)N1CCN1CCCC1`, the cytotoxicity at 70.5 h is -19.9%.
For `CN1[C@@H](C(=O)NCC2CC2)C[C@H]2CN(Cc3cccc(C#N)c3)C[C@H]21`, the cytotoxicity at 70.5 h is -13.8%.
Consider `CN1CCC(CN2CCC3(CCCN(Cc4ccoc4)C3)C2=O)CC1` (stereo not given), for which the cytotoxicity at 70.5 h is -10.7%.
Turning to `c1ccc(N2CCC3(COCCN(Cc4cccs4)C3)C2)nc1` (stereo not given), the cytotoxicity at 70.5 h was -4.82%.
As to `C[C@@H]1CN(Cc2cccc(F)c2)C[C@]12CCN(Cc1cccnc1)C2=O`, the cytotoxicity at 70.5 h is -10.4%.
As to `CNC(=O)[C@H]1C[C@@H]2CN(Cc3cccnc3OC)C[C@@H]2N1C(C)=O`, the cytotoxicity at 70.5 h was -9.57%.
In the case of `Cc1ccc(C(=O)N2CC3(CCNCC3)c3cc(Cl)ccc32)cn1`, the cytotoxicity at 70.5 h was -7.61%.
For `O=C(c1ccncc1)N1CC2(CCNCC2)c2cc(Cl)ccc21`, the cytotoxicity at 70.5 h is -6.69%.
On to `COCCN1CC[C@]2(CN(Cc3cccnc3)C[C@H]2C)C1=O`, for which the cytotoxicity at 70.5 h was -10.8%.
Consider `CN(C)CCN1CCCC12CCCN(C(=O)c1cccnc1)C2` (stereo not given), for which the cytotoxicity at 70.5 h is -5.22%.
To `C[C@H]1CN(CC2CCOCC2)C[C@@]12CCN(Cc1cccnc1)C2=O` belongs -9.39%; to `Cc1cccc(CN2C(=O)CCC23CCN(c2ccccn2)CC3)n1`, -9.61%.
Regarding `Cc1ccc(N2C[C@@H]3CCCO[C@@H]3[C@H](N3CCCC3)C2)nn1`, the cytotoxicity at 70.5 h is 27%.
For `COCC1CN(Cc2cccnc2)Cc2nnn(CC3CC3)c21` (stereo not given), the cytotoxicity at 70.5 h worked out at 19.4%.
On to `O=C(Cc1cccnc1)N1CCCC2(CCN(C3CCOCC3)C2)C1` (stereo not given), for which the cytotoxicity at 70.5 h was determined as 9.18%.
`c1ccc(CN2CCC3(CC2)CN(c2ccccn2)CCO3)nc1`: the cytotoxicity at 70.5 h was -5.77%.
In the case of `CCS(=O)(=O)N1CCC2(C1)C(=O)N(C)CCN2Cc1ccncc1` (stereo not given), the cytotoxicity at 70.5 h was -7.36%.
The figure for `O=C(Cc1cccnc1)N1CCC2(CCN(CC3CCCCC3)C2)CC1` is 7.82%; for `c1cncc(COCc2nnc3n2CCN(Cc2cccs2)C3)c1` it is 12.3%; for `Cc1nc(CN2CCCC3(CCN(c4cccnc4)C3=O)C2)cs1` (stereo not given) it is 14.2%.
`O=C1N(c2cccnc2)CCC12CCCN(Cc1ccoc1)C2` (stereo not given): the cytotoxicity at 70.5 h is -4.21%.
Regarding `Cn1ccnc1CN1CCC2(CC1)CCN(Cc1ccoc1)C2`, the cytotoxicity at 70.5 h is -2.31%.
With `CC(C)CN1CCn2c(COCc3cccnc3)nnc2C1`, the cytotoxicity at 70.5 h is -4.01%.
Turning to `c1csc(CN2CC3(CCN(Cc4ccsc4)C3)C2)n1`, the cytotoxicity at 70.5 h amounted to 8.65%.
`C[C@@H]1CN(Cc2ccccn2)C[C@]12CCN(Cc1cccnc1)C2=O`: the cytotoxicity at 70.5 h is -13.1%.
To `CN1CCN(Cc2cccnc2)C2(CCN(C3CCOCC3)C2)C1=O` (stereo not given) belongs -5.52%; to `CN1CCN(Cc2cccnc2)C2(CCN(Cc3ccccn3)C2)C1=O` (stereo not given), -7.04%.
